# Assay results reported in patent US20240083861A1, “HSD17B13 INHIBITORS AND USES THEREOF” (FL2022-001, Inc., priority 2020, published 2024).
# Target: T1, Recombinant human HSD17B13 enzyme (Homo sapiens, UniProt Q7Z5P4)
# T1 sequence (Q7Z5P4 20-300): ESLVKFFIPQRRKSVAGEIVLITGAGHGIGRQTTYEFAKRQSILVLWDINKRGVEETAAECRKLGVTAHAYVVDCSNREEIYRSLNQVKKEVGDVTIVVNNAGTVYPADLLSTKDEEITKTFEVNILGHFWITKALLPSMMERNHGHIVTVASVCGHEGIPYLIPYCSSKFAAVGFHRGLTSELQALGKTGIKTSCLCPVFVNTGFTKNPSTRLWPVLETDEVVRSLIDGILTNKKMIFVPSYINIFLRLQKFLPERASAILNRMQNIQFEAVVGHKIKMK
# Test: HSD17b13 NAD(P)H-Glo biochemical assay
# Settings: for IC50: 50 uM estradiol, 1 mM NAD+, NAD(P)H-Glo luminescence, read-out: HSD17β13 IC50; for inhibition at 30 µM: at 30 uM compound, read-out: HSD17β13 % inhibition at 30 uM
# Outline: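 Recombinant human HSD17B13 in 20 mM Tris pH7.4 with 0.002% Tween-20 and 0.02% BSA was preincubated with inhibitor for 20 minutes at RT. The reaction ran 3 hours at 37° C with 50 uM estradiol and 1 mM NAD+ (final). NADH formed was detected by NAD(P)H-Glo luminescence after 1 hour at RT.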
IC50,inhibition at 30 µM,Structure (SMILES)
< 100 nM,–,"Cn1nc(-c2cc(C(F)(F)F)c(F)c(O)c2F)c2cnc(N3CCN(C(=O)Nc4ccccc4)C4(CC4)C3)cc21 [Compound 21.08, 7-(3-(2,4-Difluoro-3-hydroxy-5-(trifluoromethyl)phenyl)-1-methyl-1H-pyrazolo[4,3-c]pyridin-6-y1)-N-phenyl-4,7-diazaspiro[2.5]octane-4-carboxamide]"
100 to 1000 nM,–,"CN(c1cc2c(cn1)c(-c1nc(C(F)(F)F)c(F)c(O)c1F)nn2C)C1CCOCC1 [Compound 22, 3,5-Difluoro-2-(1-methyl-6-(methyl(tetrahydro-2H-pyran-4-yl)amino)-1H-pyrazolo[4,3-c]pyridin-3-yl)-6-(trifluoromethyl)pyridin-4-ol]"
–,20%,"O=C(NC1CCC1)c1ccc2oc(-c3cc(O)cc(C(F)(F)F)c3F)nc2c1 [Compound 23, N-Cyclobuty1-2-(2-fluoro-5-hydroxy-3-(trifluoromethyl)phenyl)benzo[d] oxazole-5-carboxamide]"
–,< 20%,"O=C(NC12CC(C1)C2)c1ccc2oc(-c3c(F)cc(F)c(O)c3F)nc2c1 [Compound 23.01, N-(Bicyclo[1.1.1]pentan-1-y1)-2-(2,4,6-trifluoro-3-hydroxyphenyl)benzo[d]oxazole-5-carboxamide]"
